Results reported in PubChem BioAssay (NCI).
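Following 48 hours of exposure in 96-well plates, responses at five concentrations were used to interpolate endpoints linearly. TGI: total growth inhibition.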

Legend:
Assay in all cases: NCI-60 cell line screen, 48 h
[1] = tested on: CAKI-1 renal
[2] = tested on: DU-145 prostate
[3] = tested on: HT29 colon
[4] = tested on: KM12 colon
[5] = tested on: LOX IMVI melanoma
[6] = tested on: MALME-3M melanoma
[7] = tested on: MDA-MB-435
[8] = tested on: MDA-N
[9] = tested on: NCI-H226 lung
[10] = tested on: NCI-H23 lung
[11] = tested on: NCI-H460 lung
[12] = tested on: OVCAR-4 ovarian
[13] = tested on: RXF 393 renal
[14] = tested on: SF-295 CNS
[15] = tested on: SK-MEL-2 melanoma
[16] = tested on: SK-MEL-28 melanoma
[17] = tested on: SW-620 colon
[18] = tested on: U251 CNS
[19] = tested on: UO-31 renal
[20] = tested on: NCI-H522 lung

SMILES | TGI [1] | TGI [2] | TGI [3] | TGI [4] | TGI [5] | TGI [6] | TGI [7] | TGI [8] | TGI [9] | TGI [10] | TGI [11] | TGI [12] | TGI [13] | TGI [14] | TGI [15] | TGI [16] | TGI [17] | TGI [18] | TGI [19] | TGI [20]
COC(=O)C(N)CCCC(N)C(=O)NC(C)C(=O)NC(CCC(=O)NCCNCCNc1c2ccccc2nc2cccc([N+](=O)[O-])c12)C(N)=O (configuration not stated) | > 100 µM | > 66.1 µM | 47.7 µM | 67.2 µM | 43 µM | 24.8 µM | 20.1 µM | 28.1 µM | 39.4 µM | 9.91 µM | 55 µM | 8.05 µM | 28.5 µM | > 100 µM | 30.6 µM | 31.1 µM | 47.3 µM | > 41.1 µM | 59.4 µM | –
Nc1ccc2c(O)cc(=O)[nH]c2n1 | > 100 µM | > 100 µM | > 100 µM | > 100 µM | – | > 100 µM | > 100 µM | > 100 µM | > 100 µM | > 100 µM | > 100 µM | > 100 µM | > 100 µM | > 100 µM | > 100 µM | > 100 µM | > 100 µM | > 100 µM | > 100 µM | > 100 µM
Cc1cn([C@@H]2C[C@@H]2CO)c(=O)[nH]c1=O | > 100 µM | > 100 µM | > 100 µM | > 100 µM | > 100 µM | > 100 µM | > 100 µM | > 100 µM | > 100 µM | > 100 µM | > 100 µM | > 100 µM | > 100 µM | – | > 100 µM | > 100 µM | > 100 µM | > 100 µM | > 100 µM | > 100 µM
O=c1oc2ccccc2nc1/C=C(\O)c1ccc(Cl)cc1 | > 100 µM | > 100 µM | > 100 µM | > 100 µM | – | > 100 µM | > 100 µM | > 100 µM | > 100 µM | > 100 µM | > 100 µM | > 100 µM | > 100 µM | > 100 µM | > 100 µM | – | – | > 100 µM | > 100 µM | > 100 µM
Cc1cc2c(c(C=Nc3ccccc3O)c1)OC1(C=C2)Oc2ccccc2C(=O)N1C (configuration not stated) | 42.2 µM | 39.9 µM | 30.2 µM | 41.3 µM | 25.4 µM | – | 82 µM | 77.3 µM | 36.4 µM | 34.6 µM | 30.6 µM | 60 µM | 37.2 µM | 68.2 µM | 50 µM | 47.5 µM | 86.7 µM | 41 µM | 31.4 µM | –
COc1ccc(C2N(c3ccc(F)cc3)C(=O)N3C(c4ccc(OC)cc4)N(c4ccc(F)cc4)C(=O)N23)cc1 (configuration not stated) | > 100 µM | > 100 µM | > 100 µM | > 100 µM | > 100 µM | > 100 µM | > 100 µM | > 100 µM | – | > 100 µM | > 100 µM | > 100 µM | > 100 µM | > 100 µM | > 100 µM | > 100 µM | > 100 µM | > 100 µM | > 100 µM | > 100 µM
COc1ccc(N=Nc2c(C)c(C#N)c(=S)n(C3OC(CO)C(O)C(O)C3O)c2-c2ccccc2)cc1 (configuration not stated) | 73.3 µM | > 100 µM | > 100 µM | > 100 µM | 99.6 µM | 63.1 µM | 73.9 µM | > 100 µM | – | 98 µM | > 100 µM | > 100 µM | 65.9 µM | 98.5 µM | 89.7 µM | 63.6 µM | > 100 µM | 86.1 µM | > 100 µM | –
O=C1C[C@H](c2ccccc2)O[C@@H](c2ccccc2)C1 | > 100 µM | > 100 µM | > 100 µM | > 100 µM | > 100 µM | > 100 µM | > 100 µM | > 100 µM | > 100 µM | > 100 µM | > 100 µM | > 100 µM | > 100 µM | > 100 µM | > 100 µM | > 100 µM | > 100 µM | > 100 µM | > 100 µM | –
CC(Nc1ncc2c(n1)-c1ccccc1OC2)C(=O)O (configuration not stated) | > 100 µM | > 100 µM | > 100 µM | > 100 µM | > 100 µM | > 100 µM | > 100 µM | > 100 µM | > 100 µM | > 100 µM | > 100 µM | > 100 µM | > 100 µM | > 100 µM | > 100 µM | > 100 µM | > 100 µM | > 100 µM | > 100 µM | –
O=C(O)CCCC(=O)Nn1c(Cc2ccc(Cl)cc2)n[nH]c1=O | > 100 µM | > 100 µM | > 100 µM | > 100 µM | > 100 µM | > 100 µM | > 100 µM | > 100 µM | > 100 µM | > 100 µM | – | > 100 µM | > 100 µM | > 100 µM | > 100 µM | > 100 µM | > 100 µM | > 100 µM | > 100 µM | > 100 µM
N#Cc1cc(C#N)c(N)nc1N | > 100 µM | > 100 µM | > 100 µM | > 100 µM | > 100 µM | > 100 µM | > 100 µM | > 100 µM | > 100 µM | > 100 µM | > 100 µM | > 100 µM | > 100 µM | > 100 µM | > 100 µM | – | > 100 µM | > 100 µM | > 100 µM | > 100 µM
O=c1[nH]c(=O)n(COCc2ccccc2)c2ccsc12 | > 100 µM | > 100 µM | > 100 µM | > 100 µM | > 100 µM | > 100 µM | > 100 µM | > 100 µM | > 100 µM | – | > 100 µM | > 100 µM | > 100 µM | – | > 100 µM | > 100 µM | > 100 µM | > 100 µM | – | > 100 µM
